# Reference: patent US9233166B2, “Supramolecular functionalization of graphitic nanoparticles for drug delivery” (The Board of Trustees of the Leland Stanford Junior …, priority 2007, dated 2016)
# Values joined by “and” are separate entries in the source; they are usually repeats but may differ in a detail not shown here. Equal values may be shown once. Read-outs that look alike come from different tables or passages of the source.
# Legend:
# [1] = system: HCT-116 colon cancer cell line; assay: MTS cell toxicity assay, HCT-116; format: cell-based; conditions: Homo sapiens
# Protocol: (§1) HCT-116 colon cancer cell line, OVCAR-3 ovarian cancer cell line, U87MG glioma cell line and MDA-MB-435 breast cancer cell line were all obtained from American Type Culture Collect (ATCC) and cultured in the recommended conditions. […] After incubation for 72 hours, relative cell viability was measured by standard MTS assay using a CellTiter 96 kit (promega). For NGO-PEG toxicity test, cell medium containing NGO-PEG was changed to fresh medium at 72 h before cell viability test to avoid the dark color of NGO-PEG at high concentrations, which interferes the absorbance reading in MTS assay.
# [2] = system: OVCAR-3 ovarian cancer cell line; assay: MTS cell toxicity assay, OVCAR-3; format: cell-based; conditions: Homo sapiens, 72 h drug incubation
# Protocol: as §1
# U87MG glioma cell line = assay: MTS cell toxicity assay, U87MG; format: cell-based; conditions: Homo sapiens, U-87 MG, 72 h drug incubation
# Protocol: as §1
# [3] = system: MDA-MB-435 breast cancer cell line; assay: MTS cell toxicity assay, MDA-MB-435; format: cell-based; conditions: Homo sapiens, MDA-MD-435 (breast), 72 h drug incubation
# Protocol: as §1
# [4] = Water solubility of NGO-PEG-SN38; format: physicochemical; conditions: in terms of SN38
# Source text: The existence of aromatic conjugated domains on GO has been shown by NMR previously (Lerf, A.; He, H. Y.; Forster, M.; Klinowski, J., J. Phys. Chem. B, 1998, 102, 4477-4482).
# MCF-7 cells = assay: MTS cell viability assay, MCF-7 cells (SWNT-DOX formulations); format: cell-based; conditions: integrin αvβ3 negative
# Protocol: MCF-7 breast cancer cells and U87MG human glioblastoma cancer cells (both from American Type Culture Collection, ATCC) were cultured under standard conditions. Cell viability after various treatments was measured by the MTS assay with CellTiter96 kit (Promega).
# [5] = Absorbance of free doxorubicin on heating; format: physicochemical; conditions: after 24 hours
# Protocol: The diameter distributions of two types of SWNTs were obtained by AFM topographic height measurements of ˜100 PL-PEG functionalized nanotubes in each material, after depositing them on Si substrates from solutions (FIG. 12). Both Laser PL-SWNT-DOX and Hipco PL-SWNT-DOX (DOX loaded at pH=9) were incubated in PBS and kept at various temperatures (20° C., 40° C., 60° C., 80° C.). Released doxorubicin was removed at different time points and the retained doxorubicin was measured by UV-VIS-NIR to get temperature dependent releasing curves (FIGS. 13A and 13B). […] This was corrected in obtaining our release curves. The half-lives (t1/2) of doxorubicin on PEGylated SWNTs at various temperatures were obtained by fitting the releasing curves to exponential decays. We then used Arrhenius fits of 1/t1/2(T)=A×exp(−EB/kBT) where A is a constant for extracting binding energy EB of DOX on the PEGylated Hipco and laser-ablation nanotubes.
# [6] = system: Raji B-cell lymphoma tumors; assay: In vivo treatment of Raji tumor bearing SCID mice
# Protocol: Each SCID mouse was subcutaneously injected with 10 million Raji cells on its back. The treatment was initiated when the tumors reached sizes of ˜400 mm^3 (2-3 weeks after tumor inoculation). The tumor bearing mice were i.v. injected with different formulations of DOX including free DOX, SWNT-DOX and Doxil at 5 mg/kg of normalized DOX dose (or 10 mg/kg for SWNT-DOX) as well as related controls weekly. The tumor sizes were measured by a caliper three times a week and calculated as the volume=(tumor length)×(tumor width)^2/2. Relative tumor volumes were calculated as V/V0 (V0 was the tumor volume when the treatment was initiated). Mice were weighed with the relative body weights normalized to their initial weights.
# Raji tumor bearing SCID mice were treated with different formulations of DOX at the weekly by i.v. injection. Plain SWNT and separated injections of plain SWNT plus free DOX were used as the controls. The tumor sizes were normalized to their initial size when the treatment was started (FIG. 26A-D).
# [7] = mouse, in vivo, iv
# Protocol: Blood circulation was measured by drawing ˜15 μl blood from the tail vein of Raji tumor bearing SCID mice post injection of free DOX or SWNT-DOX. The blood samples were dissolved in a lysis buffer 1 (1% SDS, 1% Triton X-100, 40 mM Tris Acetate, 10 mM EDTA, 10 mM DTT) with brief sonication. Concentration of SWNTs in the blood was measured by a Raman method. […] In brief, DOX was extracted by incubating blood samples in 1 ml of 0.75 M HCl in isopropanol (IPA) at −20° C. overnight. After centrifuge at 24,000 g for 15 minutes, the supernatant was taken for fluorescence measurement using a fluorolog-3 fluorometer. A standard calibration curve with obtained by measuring fluorescence of extraction solutions with known DOX concentrations. DOX loaded on SWNTs can be completely pulled from nanotubes by the extraction solution with ˜100% recover of fluorescence (DOX fluorescence is quenched once loaded on nanotubes).
# Blood circulation data were plotted as the blood DOX or SWNT levels (unit: % ID/g) against time p.i. […]
# We injected free DOX or SWNT-DOX to Raji tumor bearing SCID mice by intravenous (i.v.) injection via tail veins. Blood was drawn at different time points post injection (p.i.) with DOX concentrations measured by fluorescence spectra.
# 4T1 tumors = assay: In vivo treatment of 4T1 murine breast cancer model; design: species or system Balb/c mice; conditions: PTX 5 mg/kg every 6 days
# Protocol: Female Balb/c mice with implanted 4T1 tumors were treated with the compositions shown in the graphs at the same PTX dose (5 mg/kg, every 6 days). […] No obvious side effects were seen. No mouse in the treatment group died, and no average drop in body weigh was seen (FIG. 19). The tumor growth curves were obtained with 5 mice in each group to get the average tumor volumes and standard deviations.
# All animal experiments were performed under a protocol approved by Stanford's Administrative Panel on Laboratory Animal Care (APLAC). The 4T1 tumor models were generated by subcutaneous injection of 2×10^6 cells in 50 μl PBS into the right shoulder of female Balb/c mice. The mice were used for treatment when the tumor volume reached 50-100 mm^3 (˜6 days after tumor inoculation). […] The tumor sizes were measured by a caliper every the other day and calculated as the volume=(tumor length)×(tumor width)^2/2. Relative tumor volumes (FIG. 24) were calculated as V/V0 (V0 was the tumor volume when the treatment was initiated).
# The mice were observed daily for clinical symptoms and the tumor volume was measured by a digital caliper every other day.
# Raji B-cells [8] = assay: MTS cell viability assay, Raji cells (NGO-PEG-Rituxan/DOX); format: cell-based; conditions: 2 uM and 10 uM DOX, vs free DOX, NGO-PEG/DOX and unconjugated mixture
# Protocol: Doxorubicin (DOX) loading onto NGO-PEG (and NGO-PEG-Rituxan) was done by simply mixing 0.5 mM of DOX with the NGO-PEG solution (˜0.2 mg/ml) at pH 8 overnight. Unbound excess DOX was removed by filtration through a 100 kDa filter and repeated rinse. The formed NGO-PEG/DOX complexes were re-suspended and stored at 4° C. Concentration of DOX loaded onto NGO-PEG was measured by the absorbance peak at 490 nm (characteristic of DOX, after subtracting the absorbance of NGO-PEG at that wavelength) with a molar extinction coefficient of 1.05×104 M·cm-1. Both Raji and CEM cells were incubated with free DOX, NGO-PEG/DOX, NGO-PEG/DOX+Rituxan (unconjugated) and NGO-PEG-Ri/DOX at DOX concentrations of 2 μM or 10 μM for 2 hours and washed by PBS twice before transferring into fresh cell medium. After another 48 h incubation, Cell viability was measured by the MTS assay with CellTiter96 kit (Promega).
# For DOX loaded onto NGO-PEG-rituximab, we incubated the conjugates with Raji cells at 2 uM and 10 uM DOX concentrations.
# Raji B-cells [9] = assay: NIR photoluminescence imaging of cell binding; format: cell-based; conditions: 4° C., Raji B-cells vs CEM T-cells
# Protocol: We covalently conjugated a B-cell specific antibody, Rituxan® rituximab (anti-CD20) to NGO-PEG (NGO-PEG-rituximab) to selectively recognize and bind to B cell lymphoma cells. We incubated B-cells and T-cells in solutions of NGO-PEG-rituximab conjugates at 4° C. to allow the conjugates to interact with the cell surface but block internalization via endocytosis. The cells were then washed and imaged by detecting NIR photoluminescence from 1100 to 2200 nm using an InGaAs detector under 658 nm excitation (laser spot size ˜1 μm). […] This confirmed selective NGO-PEG-Ab binding to B-cells over T cells. […] Nevertheless, the fluorescence quantum yield (QY) in the NIR-IR region appeared low.
# Thiolated Rituxan® was conjugated to the amine groups on NGO-PEG via a sulfo-SMCC linker (Pierce Inc.). […] All NIR fluorescence images were taken using an inverted NIR fluorescence microscope in confocal mode. […] The collected light went through a 900 nm long pass filter (Omega) and a 1100 nm long pass filter (ThorLabs) to block reflected excitation and reduce background fluorescence from the sample holder. […] Background fluorescence from the sample holder (˜160 counts) was subtracted to give relevant statistics about the effectiveness of NGO-PEG binding.
# [10] = HCT-116 (colon), 72 h drug incubation, read-out: IC50 values
molecule,measurement,setting,value
"CCc1c2c(nc3ccc(OC(=O)N4CCC(N5CCCCC5)CC4)cc13)-c1cc3c(c(=O)n1C2)COC(=O)[C@]3(O)CC [CPT-11, irinotecan]",IC50,"[1]; HCT-116, 72 h, read-out: 50% growth inhibition concentration (IC50)",~10 µM
same,IC50,[1]; [10],11 µM
same,IC50,[2],3 µM
same,IC50,U87MG glioma cell line,> 20 µM
same,IC50,[3],6 µM
"CCc1c2c(nc3ccc(O)cc13)-c1cc3c(c(=O)n1C2)COC(=O)[C@]3(O)CC [SN38, 7-ethyl-10-hydroxycamptothecin]",IC50,[1]; [10],0.015 µM
same,IC50,[2],0.0003 µM
same,IC50,U87MG glioma cell line,0.067 µM
same,IC50,[3],0.003 µM
same,water solubility,[4],very insoluble in water
"COc1cccc2c1C(=O)c1c(O)c3c(c(O)c1C2=O)C[C@@](O)(C(=O)CO)C[C@@H]3O[C@H]1C[C@H](N)[C@H](O)[C@H](C)O1 [free DOX, doxorubicin]",toxicity (concentration dependent survival),MCF-7 cells,higher toxicity than both PL-SWNT-DOX and PL-SWNT-RGD-DOX
same,drop of absorbance on heating,[5]; 60° C.,~30%
same,drop of absorbance on heating,[5]; 80° C.,~50%
same,mice death,[6]; 5 mg/kg,2 out of 10 and 2
same,tumor growth (folds of initial size),"[6]; 5 mg/kg DOX weekly i.v., in two weeks",2.90±0.19 folds
same,body weight loss,"[6]; 5 mg/kg, within two weeks",~20%
same,mouse death and body weight drop,[6]; 10 mg/kg,all the tested mice died within 2 weeks
same,DOX circulation half-life,[7],12.6 min
same,total area under curve (AUC0-∞),[7],5300 ng·h/mL
"CC(=O)O[C@H]1C(=O)[C@@]2(C)[C@H]([C@H](OC(=O)c3ccccc3)[C@]3(O)C[C@H](OC(=O)[C@H](O)[C@@H](NC(=O)c4ccccc4)c4ccccc4)C(C)=C1C3(C)C)[C@]1(OC(C)=O)CO[C@@H]1C[C@@H]2O [free PTX, paclitaxel]",lung metastasis,4T1 tumors,obvious lung metastasis was observed
NGO-PEG-Rituxan/DOX,DOX delivery and cell killing,Raji B-cells [8],Much enhanced DOX delivery and cell killing
NGO-PEG-rituximab,cell surface binding (NIR photoluminescence),Raji B-cells [9],selectively on positive Raji B-cells surface and not on negative CEM T-cells
